The target of this experiment is T1, recombinant hGYS1/GN1 protein (Homo sapiens, UniProt P13807).
T1 sequence (P13807 1-737): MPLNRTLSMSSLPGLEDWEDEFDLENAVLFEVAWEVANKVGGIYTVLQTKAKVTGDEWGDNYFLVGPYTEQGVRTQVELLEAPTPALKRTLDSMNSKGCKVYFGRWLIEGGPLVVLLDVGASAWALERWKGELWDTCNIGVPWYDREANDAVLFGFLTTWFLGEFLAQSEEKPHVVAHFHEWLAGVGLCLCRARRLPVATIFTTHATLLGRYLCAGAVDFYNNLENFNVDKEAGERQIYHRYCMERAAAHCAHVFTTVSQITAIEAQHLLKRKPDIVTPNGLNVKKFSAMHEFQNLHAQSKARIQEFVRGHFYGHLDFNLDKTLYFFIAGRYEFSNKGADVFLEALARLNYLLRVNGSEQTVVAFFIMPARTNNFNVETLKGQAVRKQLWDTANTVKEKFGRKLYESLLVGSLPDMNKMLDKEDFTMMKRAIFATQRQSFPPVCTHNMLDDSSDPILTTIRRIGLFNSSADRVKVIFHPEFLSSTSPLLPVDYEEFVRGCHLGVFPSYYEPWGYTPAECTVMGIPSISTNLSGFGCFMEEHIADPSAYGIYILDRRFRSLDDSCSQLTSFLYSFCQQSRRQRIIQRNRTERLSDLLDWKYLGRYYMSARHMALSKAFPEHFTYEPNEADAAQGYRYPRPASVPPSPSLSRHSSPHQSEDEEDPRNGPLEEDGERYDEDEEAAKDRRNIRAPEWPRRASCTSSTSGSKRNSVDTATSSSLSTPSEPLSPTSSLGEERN
T1 sequence (P46976 1-350 partner): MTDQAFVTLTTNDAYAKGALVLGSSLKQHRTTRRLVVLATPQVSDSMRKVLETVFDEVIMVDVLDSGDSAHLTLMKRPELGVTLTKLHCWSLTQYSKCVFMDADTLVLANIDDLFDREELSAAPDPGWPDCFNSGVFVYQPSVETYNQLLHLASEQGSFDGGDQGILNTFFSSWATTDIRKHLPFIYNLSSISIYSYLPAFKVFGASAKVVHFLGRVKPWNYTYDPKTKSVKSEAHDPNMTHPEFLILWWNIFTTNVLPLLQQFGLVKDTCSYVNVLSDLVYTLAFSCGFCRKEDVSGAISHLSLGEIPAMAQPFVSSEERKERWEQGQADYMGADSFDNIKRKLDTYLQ
Nature of the experiment: GYS1 coupled enzyme assay (PK/LDH). Format: biochemical. Particulars: geometric mean of at least 2 assay runs; NADH absorbance at 340 nm. The text has this: The GYS1 coupled enzyme assay is a kinetic biochemical assay that indirectly quantifies the rate of glycogen synthesis by coupling the conversion of GYS1 substrate UDP-glucose into UDP with downstream enzymatic reactions. UDP is released from UDP-glucose as glucose monomers are linked into the growing glycogen strand by GYS1. The coupled assay then proceeds with pyruvate kinase utilizing UDP and phospho(enol)pyruvate (PEP) to form pyruvate. Lactate dehydrogenase then converts pyruvate and NADH into lactate and NAD+. Oxidation of NADH to NAD+ can be measured continuously with a plate reader by quantifying the decrease in NADH absorbance at 340 nm over time.
Compounds that inhibit the hGYS1 enzyme and, subsequently, the downstream conversion of NADH to NAD+, were tested using assay ready plates (black, clear bottom 384 well plates) in a final DMSO reaction volume of 2.5% DMSO. The Assay Buffer contained 50 mM Tris pH 7.5, 2 mM MgCl2, and 100 mM KCl. Fresh stocks of BSA at a final concentration of 0.02% and TCEP at 1 mM were added before splitting buffer into hGYS1 buffer and substrate buffer. To the hGYS1 buffer, rabbit liver glycogen was added at a final concentration of 0.2% glycogen. Glucose-6-Phosphate was added at 1 mM, recombinant hGYS1/GN1 protein was added at 50 nM to the substrate buffer, phosphoenolpyruvate (PEP) was added at 2 mM, UDP-Glucose was added at 0.8 mM, NADH) was added at 0.6 mM, and Pyruvate Kinase/Lactate Dehydrogenase was added at 20 units/mL. The reaction was initiated by mixing hGYS1 buffer and substrate buffer at a 1:1 ratio. Both buffers were plated using a liquid dispensing device with hGYS1 buffer plated first followed by the substrate buffer. Plates were spun briefly to eliminate air bubbles and are immediately read in continuous mode at an absorbance of 340 nm, for 10 time points in one-minute increments, for a total of 10 minutes. The slope from these 10 time points was normalized to the positive and negative control wells. The duplicate % inhibition values are then averaged and fit to a Hill equation for dose response according to the Levenberg-Marquardt algorithm with the Hill equation maximum set to 100 and the minimum set to 0.
The results are shown in Table 3 below, which reports the IC50 of each compound. Unless otherwise specified, IC50 values are reported as the geometric mean of at least 2 assay runs on separate days. Each run represents the average of a technical replicate, where each compound was assayed twice in the same plate. As shown in the table below, the compounds of the present invention are potent inhibitors of human GYS1.

With `COCCN1CC(C(=O)Nc2ccccc2[C@H](NC(=O)C2CC2)c2ccc(C(C)C)cc2)C1` [compound 24, (R)-N-(2-(cyclopropanecarboxamido(4-isopropylphenyl)methyl)phenyl)-1-(2-methoxyethyl)azetidine-3-carboxamide], the IC50 (as a rule, the point on the concentration scale where inhibition reaches its midpoint) came to 1200 nM.

In the case of `Cc1ccccc1[C@H](NC(=O)[C@@H]1CCC[C@@H]1C#N)c1ccc(C(C)C)cc1` [compound 7, (1R,2S)-2-cyano-N-((R)-(4-isopropylphenyl)(o-tolyl)methyl)cyclopentane-1-carboxamide], the IC50 stood at 1140 nM.

As for `CC(C)c1ccc([C@@H](NC(=O)C2CC2)c2ccccc2NC(=O)C2CN(CC3CC3)C2)cc1` [compound 25, (R)-N-(2-(cyclopropanecarboxamido(4-isopropylphenyl)methyl)phenyl)-1-(cyclopropylmethyl)azetidine-3-carboxamide], the half-inhibitory concentration (IC50) came out at 1140 nM.

Consider `CC(=O)N[C@@H](CC(N)=O)C(=O)N[C@H]1CCC[C@H]1C(=O)N[C@@H](c1ccccc1)c1ccc(C(C)C)cc1` [compound 28, (S)-2-acetamido-N^1-((1S,2R)-2-(((S)-(4-isopropylphenyl)(phenyl)methyl)carbamoyl)cyclopentyl)succinamide], for which the IC50 was 2970 nM.

Take `O=C(N[C@@H](c1ccccc1)c1ccc(C2CCC2)cc1)C1CC1` [compound 40, (S)-N-((4-cyclobutylphenyl)(phenyl)methyl)cyclopropanecarboxamide]: the IC50 came out at 1330 nM.

As for `CC(=O)N[C@H]1CCC[C@H]1C(=O)N[C@@H](c1ccccc1)c1ccc(C(C)C)cc1` [compound 55, (1R,2S)-2-acetamido-N-((S)-(4-isopropylphenyl)(phenyl)methyl)cyclopentane-1-carboxamide], the half-maximal inhibitory concentration (IC50) was determined as 2420 nM.

With `CC(=O)N1CC[C@H]1C(=O)Nc1ccccc1[C@H](NC(=O)C1CC1)c1ccc(C(C)C)cc1` [compound 42, (S)-1-acetyl-N-(2-((R)-cyclopropanecarboxamido(4-isopropylphenyl)methyl)phenyl)azetidine-2-carboxamide], the IC50 worked out at 1480 nM.

As to `CC(C)c1ccc([C@@H](NC(=O)C2CC2)c2ccccc2NC2NC(=O)N(C)C2=O)cc1` (stereo partly drawn) [compound 8, N-((1R)-(4-isopropylphenyl)(2-((1-methyl-2,5-dioxoimidazolidin-4-yl)amino)phenyl)methyl)cyclopropanecarboxamide], the IC50 is 295 nM.

`CC(C)c1ccc([C@@H](NC(=O)[C@H]2CCC(O)C2)c2ccccc2)cc1` (stereo partly drawn) [compound 35, (1S)-3-hydroxy-N-((S)-(4-isopropylphenyl)(phenyl)methyl)cyclopentane-1-carboxamide]: the IC50 came out at 1130 nM.

For the molecule `COC(=O)CCNC(=O)[C@H]1CCC[C@H]1C(=O)N[C@H](c1ccc(C(C)C)cc1)c1ccccc1C` [compound 20, methyl 3-((1S,2R)-2-(((R)-(4-isopropylphenyl)(o-tolyl)methyl)carbamoyl)cyclopentane-1-carboxamido)propanoate], the 50% inhibitory concentration (IC50) turned out to be 2980 nM.

Regarding `CC(C)c1ccc([C@@H](NC(=O)[C@H]2CCC(F)C2)c2ccccc2)cc1` (stereo partly drawn) [compound 34, (1S)-3-fluoro-N-((S)-(4-isopropylphenyl)(phenyl)methyl)cyclopentane-1-carboxamide], the IC50 was found to be 778 nM.

On to `Cc1ccccc1[C@H](NC(=O)[C@@H]1CCC[C@@H]1C(=O)NC#N)c1ccc(C(C)C)cc1` [compound 22, (1S,2R)-N^1-cyano-N^2-((R)-(4-isopropylphenyl)(o-tolyl)methyl)cyclopentane-1,2-dicarboxamide], for which the IC50 worked out at 1280 nM.

With `CC(C)c1ccc([C@@H](NC(=O)C2CC2)c2ccccc2NC(=O)[C@@H]2CCN2)cc1` [compound 49, (S)-N-(2-((R)-cyclopropanecarboxamido(4-isopropylphenyl)methyl)phenyl)azetidine-2-carboxamide], the IC50 was 1790 nM.

Consider `CC(=O)NCC(=O)N[C@H]1CCC[C@H]1C(=O)N[C@@H](c1ccccc1)c1ccc(C(C)C)cc1` [compound 21, (1R,2S)-2-(2-acetamidoacetamido)-N-((S)-(4-isopropylphenyl)(phenyl)methyl)cyclopentane-1-carboxamide], for which the IC50 was 1530 nM.

For `CNC(=O)[C@H]1CCC[C@H]1C(=O)N[C@H](c1ccc(C(C)C)cc1)c1ccccc1C` [compound 16, (1R,2S)-N^1-((R)-(4-isopropylphenyl)(o-tolyl)methyl)-N^2-methylcyclopentane-1,2-dicarboxamide], the IC50 was found to be 1740 nM.

For the molecule `CC(C)c1ccc([C@@H](NC(=O)C2CC2)c2ccccc2NC(=O)C2CN(CC(F)(F)F)C2)cc1` [compound 23, (R)-N-(2-(cyclopropanecarboxamido(4-isopropylphenyl)methyl)phenyl)-1-(2,2,2-trifluoroethyl)azetidine-3-carboxamide], the IC50 turned out to be 1210 nM.

On to `COc1ccccc1[C@H](NC(=O)C1CC1)c1ccc(C(C)C)cn1` (single isomer, unassigned) [compound 33], for which the IC50 is 1420 nM.

On to `Cc1ccccc1[C@H](NC(=O)[C@@H]1CCC[C@@H]1C(N)=O)c1ccc(C(C)C)cc1` [compound 30, (1R,2S)-N^1-((R)-(4-isopropylphenyl)(o-tolyl)methyl)cyclopentane-1,2-dicarboxamide], for which the IC50 was 1390 nM.

For the molecule `CC(C)c1ccc([C@@H](NC(=O)[C@@H]2CCC[C@@H]2NC(N)=O)c2ccccc2)cc1` [compound 38, (1R,2S)-N-((S)-(4-isopropylphenyl)(phenyl)methyl)-2-ureidocyclopentane-1-carboxamide], the IC50 came to 1920 nM.

As to `CC(C)c1ccc([C@@H](NC(=O)C2CC2)c2ccccc2)nc1` [compound 45, (S)-N-((5-isopropylpyridin-2-yl)(phenyl)methyl)cyclopropanecarboxamide], the IC50 was 2490 nM.

For the molecule `CC(=O)Nc1cccc([C@H](NC(=O)C2CC2)c2ccc(C(C)C)cc2)c1` [compound 6, (R)-N-((3-acetamidophenyl)(4-isopropylphenyl)methyl)cyclopropanecarboxamide], the IC50 was 737 nM.

With `CC(C)c1ccc([C@@H](NC(=O)C2CC2)c2cccc3c2NC(=O)C3)cc1` (single isomer, unassigned) [compound 32], the IC50 was determined as 2000 nM.

As for `O=C(N[C@@H](c1ccccc1)c1ccc(C2CC2)cc1)C1CC1` [compound 41, (S)-N-((4-cyclopropylphenyl)(phenyl)methyl)cyclopropanecarboxamide], the half-inhibitory concentration (IC50) was 2060 nM.

`CC(C)c1ccc([C@@H](NC(=O)C2CC2)c2ccccc2NC(=O)[C@H]2CCN2)cc1` [compound 50, (R)-N-(2-((R)-cyclopropanecarboxamido(4-isopropylphenyl)methyl)phenyl)azetidine-2-carboxamide]: the IC50 turned out to be 1790 nM.

On to `Cc1ccccc1[C@H](NC(=O)C1CC1)c1ccc(C(C)C)cn1` (single isomer, unassigned) [compound 47], for which the IC50 was determined as 1810 nM.

Turning to `NC(=O)Nc1ccccc1[C@H](NC(=O)C1CC1)c1ccc(C2CC2)cc1` (single isomer, unassigned) [compound 17], the IC50 was 2220 nM.
